In patent publication US20240327334A1, “Covalent Inhibitors As Antiviral Agents” (Enanta Pharmaceuticals, Inc., priority 2022, published 2024):

What was measured:
SARS-CoV-2 replicon = assay: microbe, parasite or virus in culture; assay type: cell-based; settings: Severe acute respiratory syndrome coronavirus 2, Huh-7
[1] = molecular target: SARS-CoV-2 Papain-like (PLpro) protease (Severe acute respiratory syndrome coronavirus 2, UniProt P0DTD1); assay: SARS-CoV-2 Papain-like (PLpro) protease biochemical enzyme inhibition assay (ubiquitin-fluorophore substrate, Ub-R110); settings: Ub-R110 substrate; run in duplicate; read-out: PLpro IC50

Compound	EC50 (SARS-CoV-2 replicon)	IC50 [1]
O=C(NCC#Cc1ccc(C(F)(F)F)cn1)C(=O)NCc1ccccc1C(=O)NC1(c2ccc3ccccc3c2)CC1 [Example 189]	< 1000 nM	< 100 nM
C#CCNC(=O)C(=O)NCc1ccccc1C(=O)NC1(c2ccc(F)c(-c3cnn(C)c3)c2)CC1 [Example 232]	< 1000 nM	< 100 nM
CON(C)C(=O)/C=C/CNC(=O)C(=O)NCc1ccccc1C(=O)NC1(c2cccc3ccccc23)CC1 [Example 573]	1000 to 10000 nM	100 to 1000 nM
COc1cc(C2(NC(=O)c3ccccc3CNC(=O)C(=O)NC/C=C/c3ncccn3)CC2)cc2cn(C3CC3)nc12 [Example 577]	< 1000 nM	< 100 nM
CON(C)C(=O)C#CCNC(=O)C(=O)NCc1ccccc1C(=O)NC1(c2cccc3ccccc23)CC1 [Example 524]	< 1000 nM	< 100 nM
N#CCNC(=O)C(=O)NCc1ccccc1C(=O)NC1(c2cc(Cl)cc(-c3cnc(C4CC4)nc3)c2)CC1 [Example 74]	1000 to 10000 nM	< 100 nM
Cc1nn(C)c(C)c1-c1cc(F)c(F)c(C2(NC(=O)c3ccccc3CNC(=O)C(=O)NCC#Cc3nccs3)CC2)c1 [Example 297]	< 1000 nM	< 100 nM
CC1(CNC(=O)C(=O)NCc2ccccc2C(=O)NC2(c3cccc4ccccc34)CC2)CN(C#N)C1 [Example 429]	< 1000 nM	< 100 nM
Cc1nn(C)cc1-c1cc(Cl)cc(C2(NC(=O)c3ccccc3CNC(=O)C(=O)NCC#Cc3nccs3)CC2)c1 [Example 486]	< 1000 nM	< 100 nM
O=C(NCC#Cc1cnc(C2CC2)nc1)C(=O)NCc1ccccc1C(=O)NC1(c2ccc3ccccc3c2)CC1 [Example 180]	1000 to 10000 nM	1000 to 10000 nM
O=C(NCC#CBr)C(=O)NCc1ccccc1C(=O)NC1(c2cc(Br)cc3ccccc23)CC1 [Example 154]	< 1000 nM	< 100 nM
C#CCNC(=O)C(=O)NCc1ccccc1C(=O)NC1(c2cc(Cl)cc(-n3cccn3)c2)CC1 [Example 481]	1000 to 10000 nM	100 to 1000 nM
O=C(NC/C=C/c1ncccn1)C(=O)NCc1ccccc1C(=O)NC1(c2ccc3ccccc3c2)CC1 [Example 582]	< 1000 nM	< 100 nM
C#CCNC(=O)C(=O)NCc1ccccc1C(=O)NC1(c2ccc(F)c(Br)c2)CC1 [Example 227]	< 1000 nM	< 100 nM
CC(C)n1ncnc1C#C[C@H](C)NC(=O)C(=O)NCc1ccccc1C(=O)NC1(c2cc(F)cc(-c3cnn(C4CC4)c3)c2)CC1 [Example 276]	< 1000 nM	< 100 nM
C#CCNC(=O)C(=O)NCc1ccccc1C(=O)NC1(c2cccc3cc(F)ccc23)CC1 [Example 56]	< 1000 nM	< 100 nM
C[C@@H](C#Cc1nccs1)NC(=O)C(=O)NCc1ccccc1C(=O)NC1(c2cc(F)cc(-c3cnn(C4COC4)c3)c2)CC1 [Example 254]	< 1000 nM	< 100 nM
COC(=O)/C=C/CNC(=O)C(=O)NCc1ccccc1C(=O)N[C@H](C)c1cc(-c2cnn(C3CC3)c2)cc(C(F)(F)F)c1 [Example 459]	1000 to 10000 nM	< 100 nM
Cc1cccnc1C#CCNC(=O)C(=O)NCc1ccccc1C(=O)NC1(c2ccc3nn(C)cc3c2)CC1 [Example 271]	< 1000 nM	< 100 nM
Cn1cnc(C#CCNC(=O)C(=O)NCc2ccccc2C(=O)NC2(c3ccc4ccccc4c3)CC2)n1 [Example 398]	< 1000 nM	< 100 nM

Compound	EC50 (SARS-CoV-2 replicon)	IC50 [1]
CN1C[C@H](F)C[C@H]1COc1ccc(CNC(=O)C(=O)NCC#N)c(C(=O)NC2(c3cccc4ccccc34)CC2)c1 [Example 318]	< 1000 nM	< 100 nM
C[C@@H](NC(=O)c1ccccc1CNC(=O)C(=O)NCC#N)c1cccc2ccccc12 [Example 6]	1000 to 10000 nM	< 100 nM
O=C(NCC#Cc1ncc(F)cn1)C(=O)NCc1ccccc1C(=O)NC1(c2ccc3ccccc3c2)CC1 [Example 176]	< 1000 nM	< 100 nM
CN1C[C@H](F)CC1COc1ccc(CNC(=O)C(=O)NCC#N)c(C(=O)NC2(c3cc(-c4cnn(C5CC5)c4)cc4ccccc34)CC2)c1 (some centres unmarked) [Example 322]	< 1000 nM	< 100 nM
N#CC1(NC(=O)/C=C/CNC(=O)C(=O)NCc2ccccc2C(=O)NC2(c3cccc4ccccc34)CC2)CC1 [Example 564]	1000 to 10000 nM	100 to 1000 nM
Cc1nn(C)cc1-c1cc(F)cc(C2(NC(=O)c3ccccc3CNC(=O)C(=O)N[C@@H](C)C#Cc3ncccc3Cl)CC2)c1 [Example 275]	< 1000 nM	< 100 nM
Cn1cc2cc(C3(NC(=O)c4ccccc4CNC(=O)C(=O)NCC#Cc4ccc(C#N)cc4F)CC3)ccc2n1 [Example 103]	< 1000 nM	< 100 nM
O=C(NCC#Cc1nccs1)C(=O)NCc1ccccc1C(=O)NC1(c2ccc3c4c(cccc24)CC3)CC1 [Example 440]	< 1000 nM	< 100 nM
O=C(C#CCNC(=O)C(=O)NCc1ccccc1C(=O)NC1(c2cccc3ccccc23)CC1)NC1CC(F)(F)C1 [Example 519]	< 1000 nM	< 100 nM
O=C(NCC#CBr)C(=O)NCc1ccccc1C(=O)NC1(c2ccc3ccccc3c2)CC1 [Example 163]	< 1000 nM	< 100 nM
O=C(NCC#Cc1ncccc1C(F)(F)F)C(=O)NCc1ccccc1C(=O)NC1(c2ccc3ccccc3c2)CC1 [Example 191]	< 1000 nM	< 100 nM
C#CCNC(=O)C(=O)NCc1ccccc1C(=O)NC1(c2ccc3c4c(cccc24)CC3)CC1 [Example 441, N1-(2-((1-(1,2-dihydroacenaphthylen-5-yl)cyclopropyl)carbamoyl)benzyl)-N2-(prop-2-yn-1-yl)oxalamide]	< 1000 nM	< 100 nM
Cc1cccnc1C#C[C@H](C)NC(=O)C(=O)NCc1ccccc1C(=O)NC1(c2ccc3nn(C)cc3c2)CC1 [Example 274]	< 1000 nM	< 100 nM
O=C(NCC#Cc1ncco1)C(=O)NCc1ccccc1C(=O)NC1(c2ccc3ccccc3c2)CC1 [Example 137]	< 1000 nM	< 100 nM
N#C/C=C/CNC(=O)C(=O)NCc1ccccc1C(=O)NC1(c2cc(Br)cc3ccccc23)CC1 [Example 152]	< 1000 nM	< 100 nM
O=C(NCC#Cc1nccs1)C(=O)NCc1ccccc1C(=O)NC1(c2cc(F)cc(-c3cnn(C4CC4)c3)c2)CC1 [Example 243]	< 1000 nM	< 100 nM
C[C@@H](C#Cc1nccs1)NC(=O)C(=O)NCc1ccccc1C(=O)NC1(c2ccc3nn(C)cc3c2F)CC1 [Example 333]	< 1000 nM	< 100 nM
COc1cccnc1C#C[C@H](C)NC(=O)C(=O)NCc1ccccc1C(=O)NC1(c2cc(F)cc(-c3cnn(C4CC4)c3)c2)CC1 [Example 265]	< 1000 nM	< 100 nM
N#CCNC(=O)C(=O)NCc1ccccc1C(=O)NC1(c2cc(-c3cnn(C4CC4)c3)cc3ccccc23)CC1 [Example 357]	< 1000 nM	< 100 nM
O=C(NC/C=C/C(=O)N1CC(F)(F)C1)C(=O)NCc1ccccc1C(=O)NC1(c2cccc3ccccc23)CC1 [Example 554]	1000 to 10000 nM	100 to 1000 nM

Compound	EC50 (SARS-CoV-2 replicon)	IC50 [1]
CC(C)n1ccnc1C#CCNC(=O)C(=O)NCc1ccccc1C(=O)NC1(c2cc(F)cc(-c3cnn(C4CC4)c3)c2)CC1 [Example 277]	< 1000 nM	< 100 nM
Cc1cc(C#N)ccc1C#CCNC(=O)C(=O)NCc1ccccc1C(=O)NC1(c2ccc3ccccc3c2)CC1 [Example 85]	< 1000 nM	< 100 nM
O=C(NCC#Cc1ncccn1)C(=O)NCc1ccccc1C(=O)NC1(c2ccc3ccccc3c2)CC1 [Example 168]	< 1000 nM	< 100 nM
N#CCNC(=O)C(=O)NCc1ccccc1C(=O)NC1(c2cc(Cl)cc(Br)c2)CC1 [Example 455]	> 10000 nM	100 to 1000 nM
C[C@@H](C#Cc1nccs1)NC(=O)C(=O)NCc1ccccc1C(=O)NC1(c2cc(Cl)cc(-c3nccs3)c2)CC1 [Example 494]	< 1000 nM	< 100 nM
O=C(NCC#Cc1nccs1)C(=O)NCc1ccccc1C(=O)NC1(c2ccc3ccccc3c2)CC1 [Example 167]	< 1000 nM	< 100 nM
O=C(NCC#Cc1nccs1)C(=O)NCc1ccccc1C(=O)NC1(c2cc(-c3cnn(C4CC4)c3)cc(C3CC3)c2)CC1 [Example 134]	< 1000 nM	< 100 nM
COc1nccnc1C#CCNC(=O)C(=O)NCc1ccccc1C(=O)NC1(c2ccc3ccccc3c2)CC1 [Example 195]	< 1000 nM	< 100 nM
N#CCNC(=O)C(=O)NCc1ccccc1C(=O)NC1(c2ccnc3cc(Cl)ccc23)CC1 [Example 423]	1000 to 10000 nM	< 100 nM
C#CCNC(=O)C(=O)NCc1ccccc1C(=O)NC1(c2cc(C#N)cc(-c3cccs3)c2)CC1 [Example 128]	< 1000 nM	< 100 nM
N#CCNC(=O)C(=O)NCc1ccccc1C(=O)NC1(c2cccc(Br)c2)CC1 [Example 545]	> 10000 nM	100 to 1000 nM
O=C(NCC#Cc1ncc(F)s1)C(=O)NCc1ccccc1C(=O)NC1(c2cc(F)cc(-c3cnn(C4CC4)c3)c2)CC1 [Example 249]	< 1000 nM	< 100 nM
C#CCNC(=O)C(=O)NCc1ccccc1C(=O)NC1(c2cc(-c3cn(C4CC4)nn3)cc(C(F)(F)F)c2)CC1 [Example 59]	< 1000 nM	< 100 nM
COc1cccnc1C#C[C@H](C)NC(=O)C(=O)NCc1ccccc1C(=O)NC1(c2ccc3nn(C)cc3c2)CC1 [Example 273]	< 1000 nM	< 100 nM
N#CCNC(=O)C(=O)NCc1ccccc1C(=O)NC1(c2ccc(F)c3ccccc23)CC1 [Example 121]	< 1000 nM	< 100 nM
N#CN1CC(C(=O)NCc2ccccc2C(=O)NC2(c3cccc4ccccc34)CC2)C1 [Example 114]	< 1000 nM	< 100 nM
C#CCNC(=O)C(=O)NCc1ccccc1C(=O)NC1(c2cc(F)cc(-c3cnn(C)c3)c2)CC1 [Example 238]	< 1000 nM	< 100 nM
N#CCNC(=O)C(=O)NCc1ccccc1C(=O)NC1(c2cccc(-c3cccs3)c2Cl)CC1 [Example 382]	1000 to 10000 nM	< 100 nM
